Here are results for nine compounds from PubChem BioAssay (NCI).

The term GI50 denotes the concentration giving 50% growth inhibition. One may read the TGI as the concentration at which net growth stops. Low values mean greater sensitivity of the cells, high ones lower sensitivity of the cells.

Some test systems named below: A498 renal; MCF7 breast; NCI-H522 lung; NCI-H23 lung; NCI-H460 lung; UACC-62 melanoma; OVCAR-8 ovarian; SK-MEL-5 melanoma; HL-60(TB) leukemia; HCC-2998 colon.
Assay in all cases: DTP human tumour cell line panel, 48 h

Values joined by “and” are separate entries in the source; they are usually repeats but may differ in a detail not shown here. Equal values may be shown once.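 All cell lines were grown in 96-well plates and treated with compound for 48 hours. The concentration for 50% growth inhibition is given as GI50. TGI: total growth inhibition.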 Bounds are passed on as bounds.

Turning to `C[C@H](CCCOS(C)(=O)=O)[C@H]1CC[C@H]2[C@@H]3CC[C@@H]4C[C@H](OS(C)(=O)=O)CC[C@]4(C)[C@H]3CC[C@]12C`, the GI50 was 664 µM in the assay on A498 renal; 323 µM in the assay on MCF7 breast; 398 µM in the assay with NCI-H522 lung; 286 µM in the assay with NCI-H23 lung; 597 µM in the assay with NCI-H460 lung; 710 µM in the assay with UACC-62 melanoma. In addition, the GI50 was 582 µM with OVCAR-8 ovarian and 1110 µM in the assay on SK-MEL-5 melanoma. The TGI was 692 µM in the assay on MCF7 breast, 961 µM in the assay with NCI-H522 lung, 2080 µM in the assay with NCI-H460 lung and > 2500 µM in the assay on SK-MEL-5 melanoma.
Take `Cn1c(=O)c2[nH]cnc2n(C)c1=O.[CH2-]C(Cc1cccc2cc(C(=O)O)c(=O)oc12)OC.[Hg+2].[OH-]` (centres undefined): the GI50 with A498 renal is 18.7 µM; in the assay with MCF7 breast it was 16.6 µM; with HL-60(TB) leukemia, 30.5 µM; in the assay on NCI-H522 lung, 15.1 µM; with NCI-H23 lung it was 16.8 µM; with UACC-62 melanoma it was 17.3 µM. Moreover, the figures for the GI50 in the assay with HCC-2998 colon, in the assay with OVCAR-8 ovarian and with SK-MEL-5 melanoma were 23 µM, 18 µM and 17.4 µM, respectively. Moreover, the TGI in the assay on A498 renal is 33 µM; with MCF7 breast it was 33 µM; in the assay with HL-60(TB) leukemia it was 58.3 µM; with NCI-H522 lung it was 32.5 µM; with NCI-H23 lung, 30.9 µM; in the assay on UACC-62 melanoma it was 31.3 µM. Also, the TGI with HCC-2998 colon was 39.2 µM; in the assay with OVCAR-8 ovarian, 32 µM; with SK-MEL-5 melanoma, 31.2 µM.
Regarding `COC(=O)C1=C(O)C(C(=O)OC)[C@@]2(O)[C@@H](C(=O)OC)C(c3ccccc3Cl)C[C@@H]1[C@@H]2C(=O)OC` (some centres undefined), the GI50 is 14.2 µM in the assay with A498 renal; 5.24 µM in the assay with MCF7 breast; 3.16 µM in the assay with NCI-H522 lung; 9.79 µM with NCI-H23 lung; 10.7 µM in the assay with NCI-H460 lung; 2.53 µM with UACC-62 melanoma. Besides, the GI50 was 14 µM with HCC-2998 colon, 5.81 µM with OVCAR-8 ovarian and 11.1 µM in the assay on SK-MEL-5 melanoma. The TGI is 32.4 µM in the assay with A498 renal; > 100 µM in the assay with MCF7 breast; 12.8 µM with NCI-H522 lung; 23.3 µM in the assay on NCI-H23 lung; > 100 µM with NCI-H460 lung; 6.89 µM with UACC-62 melanoma. Further, the values for the TGI with HCC-2998 colon, in the assay with OVCAR-8 ovarian and in the assay with SK-MEL-5 melanoma were 28.6 µM, 34 µM and 24.2 µM, respectively.
For `Nc1nc(Cl)c2ncn(Cc3ccc(-c4ccc(CCl)cc4)cc3)c2n1`, the GI50 in the assay with A498 renal is 35.2 µM; with MCF7 breast it was 7.31 µM; in the assay on HL-60(TB) leukemia it was 19.4 µM; in the assay on NCI-H522 lung, > 100 µM; in the assay with NCI-H23 lung it was 5.6 µM; in the assay on NCI-H460 lung it was 20.4 µM. Further, the GI50 with UACC-62 melanoma is 9.26 µM; with OVCAR-8 ovarian, 7.86 µM; with SK-MEL-5 melanoma, 4.42 µM. For the same compound, the TGI is > 100 µM with A498 renal; 71.7 µM in the assay with MCF7 breast; > 100 µM in the assay with HL-60(TB) leukemia; > 100 µM in the assay on NCI-H522 lung; 19.9 µM in the assay on NCI-H23 lung; 69.1 µM in the assay on NCI-H460 lung. In addition, the TGI in the assay with UACC-62 melanoma was 23 µM; in the assay on OVCAR-8 ovarian it was 29.5 µM; with SK-MEL-5 melanoma it was 18.9 µM.
With `N#CC1C(=O)NC(=O)C(C#N)C1c1ccc(Cl)c(Cl)c1` (centres undefined), the TGI is > 100 µM in the assay with MCF7 breast; > 100 µM in the assay on HL-60(TB) leukemia; 38 µM with NCI-H522 lung; 49.2 µM in the assay on NCI-H23 lung; > 100 µM in the assay on NCI-H460 lung; > 100 µM in the assay with OVCAR-8 ovarian. Further, the TGI in the assay on SK-MEL-5 melanoma amounted to 48.3 µM.
Regarding `COn1cc(C(=O)N=C(SC)SC)c2ccccc21`, the GI50 was > 100 µM in the assay with MCF7 breast; 13.1 µM in the assay on NCI-H522 lung; 27.2 µM in the assay on NCI-H23 lung; > 100 µM in the assay on NCI-H460 lung; 20.2 µM with UACC-62 melanoma; 19.8 µM with HCC-2998 colon. Besides, the GI50 in the assay on OVCAR-8 ovarian was 18.5 µM; in the assay on SK-MEL-5 melanoma, 15.7 µM. The TGI in the assay with MCF7 breast was > 100 µM; in the assay with NCI-H522 lung it was 42 µM; in the assay with NCI-H23 lung, 60.3 µM; in the assay with NCI-H460 lung it was > 100 µM; with UACC-62 melanoma it was 55.8 µM; in the assay with HCC-2998 colon, 36.8 µM. Besides, the values for the TGI with OVCAR-8 ovarian and in the assay on SK-MEL-5 melanoma were 55.5 µM and 34.4 µM, respectively.
On to `Nc1nc(N)c(-c2ccc(Cl)cc2)c(/C=C/c2ccc([N+](=O)[O-])cc2)n1`, for which the GI50 in the assay with A498 renal is 1.97 µM; in the assay on MCF7 breast, 3.16 µM; in the assay on HL-60(TB) leukemia, 5.64 µM; in the assay with NCI-H522 lung it was 13.2 µM; in the assay on NCI-H23 lung it was 13.3 µM; with NCI-H460 lung it was 3.4 µM. Also, the GI50 in the assay on OVCAR-8 ovarian was 4.77 µM; in the assay with SK-MEL-5 melanoma, 3.83 µM. The TGI in the assay on A498 renal is 16.5 µM; in the assay on MCF7 breast it was > 100 µM; with HL-60(TB) leukemia it was > 100 µM; with NCI-H522 lung, 41.9 µM; in the assay on NCI-H23 lung it was > 100 µM; in the assay with NCI-H460 lung, > 100 µM. For the same compound, the TGI in the assay on OVCAR-8 ovarian and in the assay with SK-MEL-5 melanoma was > 100 µM throughout.
As for `Nc1cc(N)c2nc(-c3ccccc3)c(Oc3ccc(Cl)c(Cl)c3)nc2c1`, the GI50 with A498 renal is 0.442 µM; in the assay on MCF7 breast it was 14.2 µM; in the assay with HL-60(TB) leukemia, 5.15 µM; in the assay on NCI-H522 lung, 8.34 µM; in the assay on NCI-H23 lung, 15.6 µM; in the assay with NCI-H460 lung it was 18.4 µM. The figures for the GI50 in the assay with UACC-62 melanoma, with OVCAR-8 ovarian and in the assay with SK-MEL-5 melanoma were 16.3 µM, 27.9 µM and 9.77 µM, respectively. Moreover, the TGI with A498 renal is 12.3 µM; in the assay with MCF7 breast, 70.6 µM; with HL-60(TB) leukemia it was > 100 µM; in the assay with NCI-H522 lung, 33.7 µM; in the assay on NCI-H23 lung it was 39.9 µM; in the assay with NCI-H460 lung, 71.4 µM. Further, the TGI in the assay on UACC-62 melanoma turned out to be 48.2 µM; with OVCAR-8 ovarian, 88.4 µM; in the assay on SK-MEL-5 melanoma it was 28.7 µM.
Regarding `NC(=S)N=Nc1c(O)[nH]c2ccccc12`, the GI50 is 30.1 µM and 206 µM with A498 renal; 168 µM with MCF7 breast; 275 µM in the assay on HL-60(TB) leukemia; 159 µM with NCI-H522 lung; 185 µM in the assay with NCI-H460 lung; 209 µM with UACC-62 melanoma. Further, the GI50 was 234 µM with OVCAR-8 ovarian; 55.5 µM and 201 µM in the assay on SK-MEL-5 melanoma. Besides, the TGI in the assay with A498 renal was 94.9 µM and 503 µM; in the assay with MCF7 breast, 611 µM; in the assay on HL-60(TB) leukemia, > 1000 µM; in the assay on NCI-H522 lung, 343 µM; with NCI-H460 lung, > 1000 µM; in the assay with UACC-62 melanoma, 497 µM. The TGI with OVCAR-8 ovarian was determined as 846 µM; in the assay with SK-MEL-5 melanoma, 651 µM.
